Test results from ChEMBL document CHEMBL3352711, “Discovery and Characterization of ML398, a Potent and Selective Antagonist of the D4 Receptor with in Vivo Activity” (ACS Med Chem Lett, 2014).
Activity calls are given as the source filed them. The rule behind the calls is not given here.

Key:
[1] = target: T1, D(4) dopamine receptor (Homo sapiens) (UniProt P21917); experiment: Inhibition of human dopamine D4 receptor at 10 uM
T1 sequence (whole entry): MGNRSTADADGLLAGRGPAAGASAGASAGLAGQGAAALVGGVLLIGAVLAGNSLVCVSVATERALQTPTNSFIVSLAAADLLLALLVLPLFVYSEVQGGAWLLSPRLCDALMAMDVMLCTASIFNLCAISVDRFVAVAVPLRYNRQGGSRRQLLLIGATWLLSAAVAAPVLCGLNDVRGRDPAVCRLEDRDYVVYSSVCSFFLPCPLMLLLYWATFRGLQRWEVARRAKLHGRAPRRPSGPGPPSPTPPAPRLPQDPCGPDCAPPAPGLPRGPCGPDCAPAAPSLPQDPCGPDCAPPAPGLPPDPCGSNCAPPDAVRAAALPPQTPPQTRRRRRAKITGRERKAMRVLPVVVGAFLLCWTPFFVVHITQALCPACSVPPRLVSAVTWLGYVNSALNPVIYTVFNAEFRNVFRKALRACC

[2] = target: T2, D(4) dopamine receptor (Homo sapiens, UniProt P21917); experiment: Inhibition of human dopamine D4 receptor
T2 sequence (P21917 whole entry): T1 sequence (whole entry)

[3] = Ratio of drug level in Sprague-Dawley rat brain to plasma at 10 mg/kg, ip after 0.25 hrs; type: ADME, organism-based; parameters: dose 10 mg/kg, route intraperitoneal
[4] = target: Histamine H1 receptor (Homo sapiens) (UniProt P35367); experiment: Binding affinity to histamine H1 receptor (unknown origin) at 10 uM by radioligand binding assay
Chain of Histamine H1 receptor (Homo sapiens) (P35367 whole entry): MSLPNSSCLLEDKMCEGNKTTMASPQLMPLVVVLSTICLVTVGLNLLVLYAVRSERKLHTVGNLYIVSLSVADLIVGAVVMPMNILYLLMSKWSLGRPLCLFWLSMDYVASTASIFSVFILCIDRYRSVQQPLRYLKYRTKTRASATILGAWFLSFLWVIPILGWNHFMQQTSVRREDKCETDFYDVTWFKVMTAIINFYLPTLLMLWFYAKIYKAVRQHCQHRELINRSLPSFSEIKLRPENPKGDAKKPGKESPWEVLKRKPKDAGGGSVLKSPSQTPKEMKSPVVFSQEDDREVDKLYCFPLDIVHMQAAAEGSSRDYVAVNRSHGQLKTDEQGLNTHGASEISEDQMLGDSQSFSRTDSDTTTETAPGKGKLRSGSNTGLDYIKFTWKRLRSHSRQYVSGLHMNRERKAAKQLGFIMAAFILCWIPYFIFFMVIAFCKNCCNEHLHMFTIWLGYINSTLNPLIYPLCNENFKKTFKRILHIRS

[5] = target: T3, Alpha-1A adrenergic receptor (Homo sapiens) (UniProt P35348); experiment: Binding affinity to adrenergic alpha1A receptor (unknown origin) at 10 uM by radioligand binding assay
T3 sequence (whole entry): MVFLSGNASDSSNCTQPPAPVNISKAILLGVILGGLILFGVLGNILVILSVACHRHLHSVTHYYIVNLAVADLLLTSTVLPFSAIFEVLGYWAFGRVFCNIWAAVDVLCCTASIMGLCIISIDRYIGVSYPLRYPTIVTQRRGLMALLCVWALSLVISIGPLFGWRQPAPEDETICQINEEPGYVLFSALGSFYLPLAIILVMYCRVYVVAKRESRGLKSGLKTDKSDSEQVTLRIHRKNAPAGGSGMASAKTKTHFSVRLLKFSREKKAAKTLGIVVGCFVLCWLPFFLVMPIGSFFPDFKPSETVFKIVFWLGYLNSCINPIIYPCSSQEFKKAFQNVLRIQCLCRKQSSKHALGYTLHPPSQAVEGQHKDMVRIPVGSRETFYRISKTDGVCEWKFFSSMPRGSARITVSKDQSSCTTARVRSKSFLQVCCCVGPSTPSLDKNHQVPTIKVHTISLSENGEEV

[6] = target: D(1B) dopamine receptor (Homo sapiens) (UniProt P21918); experiment: Inhibition of human dopamine D5 receptor
Chain of D(1B) dopamine receptor (Homo sapiens) (P21918 whole entry): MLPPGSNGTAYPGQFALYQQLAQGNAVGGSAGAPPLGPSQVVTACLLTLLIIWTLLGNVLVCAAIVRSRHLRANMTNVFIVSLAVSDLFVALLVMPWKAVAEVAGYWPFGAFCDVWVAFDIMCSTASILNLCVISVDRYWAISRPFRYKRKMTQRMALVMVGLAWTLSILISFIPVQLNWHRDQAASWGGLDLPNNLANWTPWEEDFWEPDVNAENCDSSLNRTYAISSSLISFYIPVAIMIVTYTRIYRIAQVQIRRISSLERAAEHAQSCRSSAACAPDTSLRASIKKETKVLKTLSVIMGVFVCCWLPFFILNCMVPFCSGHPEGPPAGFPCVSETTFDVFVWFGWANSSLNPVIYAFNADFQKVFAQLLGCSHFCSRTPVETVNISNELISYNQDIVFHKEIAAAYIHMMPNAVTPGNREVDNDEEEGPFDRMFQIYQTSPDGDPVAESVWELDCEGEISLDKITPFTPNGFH

[7] = target: Sigma non-opioid intracellular receptor 1 (Homo sapiens) (UniProt Q99720); experiment: Binding affinity to sigma 1 receptor (unknown origin) at 10 uM by radioligand binding assay
Chain of Sigma non-opioid intracellular receptor 1 (Homo sapiens) (Q99720 whole entry): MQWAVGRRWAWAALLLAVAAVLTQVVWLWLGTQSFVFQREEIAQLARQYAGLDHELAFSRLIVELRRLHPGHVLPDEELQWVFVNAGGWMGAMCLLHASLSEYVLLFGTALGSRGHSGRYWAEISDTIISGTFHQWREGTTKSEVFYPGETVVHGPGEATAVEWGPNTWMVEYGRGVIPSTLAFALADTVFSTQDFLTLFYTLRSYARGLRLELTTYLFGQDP

[8] = target: D(3) dopamine receptor (Homo sapiens, UniProt P35462); experiment: Inhibition of human dopamine D3 receptor
Chain of D(3) dopamine receptor (P35462 whole entry): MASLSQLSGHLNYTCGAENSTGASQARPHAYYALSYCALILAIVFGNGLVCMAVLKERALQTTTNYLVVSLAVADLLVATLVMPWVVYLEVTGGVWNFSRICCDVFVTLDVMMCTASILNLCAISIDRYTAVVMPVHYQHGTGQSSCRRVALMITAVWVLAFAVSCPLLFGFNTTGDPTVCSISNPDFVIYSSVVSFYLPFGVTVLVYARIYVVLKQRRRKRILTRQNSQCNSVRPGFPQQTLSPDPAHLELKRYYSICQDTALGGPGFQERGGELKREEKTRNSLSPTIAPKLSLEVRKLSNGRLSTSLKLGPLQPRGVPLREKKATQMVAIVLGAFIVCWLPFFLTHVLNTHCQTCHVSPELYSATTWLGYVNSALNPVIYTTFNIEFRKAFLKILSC

[9] = Drug uptake in Sprague-Dawley rat plasma at 10 mg/kg, ip after 0.25 hrs; type: ADME, organism-based; parameters: dose 10 mg/kg, route intraperitoneal
[10] = target: Cytochrome P450 2D6 (Homo sapiens, UniProt P10635); experiment: Inhibition of human CYP2D6 by electrospray ionization; type: ADME
Chain of Cytochrome P450 2D6 (P10635 whole entry): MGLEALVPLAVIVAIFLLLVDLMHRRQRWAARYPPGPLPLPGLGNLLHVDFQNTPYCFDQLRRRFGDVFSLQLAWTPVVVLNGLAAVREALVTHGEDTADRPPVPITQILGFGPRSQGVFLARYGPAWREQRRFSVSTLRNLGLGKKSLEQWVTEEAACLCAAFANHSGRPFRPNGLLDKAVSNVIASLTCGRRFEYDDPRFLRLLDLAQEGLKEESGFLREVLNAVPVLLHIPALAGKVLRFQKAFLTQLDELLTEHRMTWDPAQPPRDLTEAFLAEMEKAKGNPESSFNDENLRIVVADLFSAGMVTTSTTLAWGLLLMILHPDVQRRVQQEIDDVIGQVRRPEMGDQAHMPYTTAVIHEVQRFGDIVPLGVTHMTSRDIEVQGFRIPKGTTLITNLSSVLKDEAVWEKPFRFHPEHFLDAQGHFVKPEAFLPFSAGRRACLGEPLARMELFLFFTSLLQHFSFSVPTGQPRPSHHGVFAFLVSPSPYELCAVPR

[11] = Fraction unbound in human plasma; type: ADME, cell-free
[12] = target: T4, D(2) dopamine receptor (Homo sapiens, UniProt P14416); experiment: Inhibition of human dopamine D2L receptor
T4 sequence (P14416 whole entry): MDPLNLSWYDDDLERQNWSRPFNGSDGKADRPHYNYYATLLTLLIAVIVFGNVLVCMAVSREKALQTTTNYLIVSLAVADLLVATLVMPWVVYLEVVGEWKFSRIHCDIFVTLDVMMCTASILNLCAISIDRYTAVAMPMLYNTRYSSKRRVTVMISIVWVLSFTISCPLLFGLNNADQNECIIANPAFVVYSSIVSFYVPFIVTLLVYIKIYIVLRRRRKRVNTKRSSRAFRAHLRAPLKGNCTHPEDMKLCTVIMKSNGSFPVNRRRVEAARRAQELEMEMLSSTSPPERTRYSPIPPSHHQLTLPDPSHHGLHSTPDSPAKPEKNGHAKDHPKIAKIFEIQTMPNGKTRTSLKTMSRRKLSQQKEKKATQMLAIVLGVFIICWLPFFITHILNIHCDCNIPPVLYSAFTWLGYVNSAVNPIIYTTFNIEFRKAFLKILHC

[13] = target: T4, D(2) dopamine receptor; experiment: Inhibition of human dopamine D2S receptor
[14] = target: D(1A) dopamine receptor (Homo sapiens, UniProt P21728); experiment: Inhibition of human dopamine D1 receptor
Chain of D(1A) dopamine receptor (P21728 whole entry): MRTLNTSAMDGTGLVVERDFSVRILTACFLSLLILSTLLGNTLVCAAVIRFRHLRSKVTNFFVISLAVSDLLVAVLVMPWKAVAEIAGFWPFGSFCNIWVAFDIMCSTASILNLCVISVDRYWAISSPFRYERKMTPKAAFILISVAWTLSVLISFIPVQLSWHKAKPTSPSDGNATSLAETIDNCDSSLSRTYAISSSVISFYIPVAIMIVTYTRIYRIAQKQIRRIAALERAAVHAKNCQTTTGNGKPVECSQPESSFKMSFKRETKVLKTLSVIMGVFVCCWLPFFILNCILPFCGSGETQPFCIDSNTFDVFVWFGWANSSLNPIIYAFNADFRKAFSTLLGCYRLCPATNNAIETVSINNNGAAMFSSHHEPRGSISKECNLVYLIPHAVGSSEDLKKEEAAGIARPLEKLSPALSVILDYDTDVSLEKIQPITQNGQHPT

[15] = target: Cytochrome P450 3A4 (Homo sapiens, UniProt P08684); experiment: Inhibition of human CYP3A4 by electrospray ionization; type: ADME
Chain of Cytochrome P450 3A4 (P08684 whole entry): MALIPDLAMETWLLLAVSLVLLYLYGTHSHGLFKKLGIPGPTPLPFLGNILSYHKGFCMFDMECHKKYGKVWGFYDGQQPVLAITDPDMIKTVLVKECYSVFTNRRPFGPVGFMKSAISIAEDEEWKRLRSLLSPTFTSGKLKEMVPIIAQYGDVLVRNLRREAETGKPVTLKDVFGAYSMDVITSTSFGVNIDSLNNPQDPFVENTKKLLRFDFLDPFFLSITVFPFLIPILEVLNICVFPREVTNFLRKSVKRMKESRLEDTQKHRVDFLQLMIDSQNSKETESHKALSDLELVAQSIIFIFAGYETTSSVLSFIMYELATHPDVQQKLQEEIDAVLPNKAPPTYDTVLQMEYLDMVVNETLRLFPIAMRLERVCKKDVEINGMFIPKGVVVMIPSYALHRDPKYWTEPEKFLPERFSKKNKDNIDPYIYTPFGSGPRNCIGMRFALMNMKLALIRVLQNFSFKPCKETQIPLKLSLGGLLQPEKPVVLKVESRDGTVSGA

[16] = target: Cytochrome P450 2C9 (Homo sapiens, UniProt P11712); experiment: Inhibition of human CYP2C9 by electrospray ionization; type: ADME
Chain of Cytochrome P450 2C9 (P11712 whole entry): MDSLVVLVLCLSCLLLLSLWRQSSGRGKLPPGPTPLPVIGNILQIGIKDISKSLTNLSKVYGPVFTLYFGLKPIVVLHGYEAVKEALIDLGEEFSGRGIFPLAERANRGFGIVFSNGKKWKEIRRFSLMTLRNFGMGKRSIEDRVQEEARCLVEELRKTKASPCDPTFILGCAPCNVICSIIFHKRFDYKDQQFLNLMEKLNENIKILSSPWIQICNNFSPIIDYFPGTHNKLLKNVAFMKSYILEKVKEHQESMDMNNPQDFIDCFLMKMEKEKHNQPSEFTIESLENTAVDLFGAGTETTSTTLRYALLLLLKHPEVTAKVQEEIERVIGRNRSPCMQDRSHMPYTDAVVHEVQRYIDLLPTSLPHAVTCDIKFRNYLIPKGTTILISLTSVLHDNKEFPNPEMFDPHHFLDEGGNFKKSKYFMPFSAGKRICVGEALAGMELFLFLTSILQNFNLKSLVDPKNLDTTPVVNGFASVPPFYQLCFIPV

[17] = tested on: Rattus norvegicus; experiment: Reversal of cocaine-induced hyperlocomotion in Sprague-Dawley rat at 10 mg/kg, ip; type: functional, organism-based; parameters: dose 10 mg/kg
[18] = target: T5, Cytochrome P450 1A2 (Homo sapiens, UniProt P05177); experiment: Inhibition of human CYP1A2 by electrospray ionization; type: ADME
T5 sequence (P05177 whole entry): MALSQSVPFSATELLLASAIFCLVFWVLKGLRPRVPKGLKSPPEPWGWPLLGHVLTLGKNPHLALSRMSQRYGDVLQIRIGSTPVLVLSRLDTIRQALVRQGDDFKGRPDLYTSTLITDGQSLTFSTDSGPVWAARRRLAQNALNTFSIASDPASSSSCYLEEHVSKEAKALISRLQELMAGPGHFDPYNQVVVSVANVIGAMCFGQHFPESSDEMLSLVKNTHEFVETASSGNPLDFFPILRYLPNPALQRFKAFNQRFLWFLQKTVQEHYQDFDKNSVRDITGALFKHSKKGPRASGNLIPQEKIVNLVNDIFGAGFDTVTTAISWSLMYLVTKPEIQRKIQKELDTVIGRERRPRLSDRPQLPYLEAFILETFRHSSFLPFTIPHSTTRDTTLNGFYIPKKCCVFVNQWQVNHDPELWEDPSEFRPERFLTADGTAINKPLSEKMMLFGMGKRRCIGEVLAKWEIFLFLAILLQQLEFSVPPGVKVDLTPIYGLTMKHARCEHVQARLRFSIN

[19] = target: Sodium-dependent noradrenaline transporter (Homo sapiens) (UniProt P23975); experiment: Binding affinity to norepinephrine transporter (unknown origin) at 10 uM by radioligand binding assay
Chain of Sodium-dependent noradrenaline transporter (Homo sapiens) (P23975 whole entry): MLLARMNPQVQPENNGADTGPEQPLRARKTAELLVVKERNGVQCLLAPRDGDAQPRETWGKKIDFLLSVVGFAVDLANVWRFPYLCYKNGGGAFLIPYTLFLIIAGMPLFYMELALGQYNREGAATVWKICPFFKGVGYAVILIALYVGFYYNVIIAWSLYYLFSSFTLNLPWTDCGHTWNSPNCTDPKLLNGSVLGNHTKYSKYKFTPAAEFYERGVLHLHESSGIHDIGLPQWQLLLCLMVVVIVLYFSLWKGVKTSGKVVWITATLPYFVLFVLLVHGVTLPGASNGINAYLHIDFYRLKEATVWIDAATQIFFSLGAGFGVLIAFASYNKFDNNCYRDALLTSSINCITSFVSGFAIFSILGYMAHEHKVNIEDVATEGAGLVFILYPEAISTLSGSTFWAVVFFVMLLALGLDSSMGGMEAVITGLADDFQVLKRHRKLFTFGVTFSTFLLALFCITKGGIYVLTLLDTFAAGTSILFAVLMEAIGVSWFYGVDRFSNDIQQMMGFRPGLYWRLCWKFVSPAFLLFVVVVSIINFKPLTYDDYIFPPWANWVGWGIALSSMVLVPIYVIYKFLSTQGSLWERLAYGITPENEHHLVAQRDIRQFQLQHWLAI

[20] = target: Sodium-dependent dopamine transporter (Homo sapiens) (UniProt Q01959); experiment: Binding affinity to dopamine transporter (unknown origin) at 10 uM by radioligand binding assay
[21] = Drug uptake in Sprague-Dawley rat brain at 10 mg/kg, ip after 0.25 hrs; type: ADME, organism-based; parameters: dose 10 mg/kg, route intraperitoneal
[22] = Fraction unbound in rat plasma; type: ADME, cell-free
[23] = target: T4, D(2) dopamine receptor; experiment: Inhibition of human dopamine D2 receptor
[24] = tested on: Rattus norvegicus; experiment: Reversal of cocaine-induced hyperlocomotion in Sprague-Dawley rat at 3 mg/kg, ip; type: functional, organism-based; parameters: dose 3 mg/kg

## Fc1ccc(CN2CCOC(CCc3ccccc3)C2)cc1 (racemic)
[1]
  inhibition: 88%
[2]
  IC50: 1.14 µM
  Ki: 0.32 µM

## Cn1c(N2CCOC(CCc3ccccc3)C2)nc2ccccc21 (racemic)
[1]
  inhibition: 17%

## c1ccc(CCC2CN(Cc3ccccc3)CCO2)cc1 (racemic)
[1]
  inhibition: 74%
[2]
  IC50: 1.48 µM
  Ki: 0.41 µM

## FC(F)(F)Oc1cccc(CN2CCOC(CCc3ccccc3)C2)c1 (racemic)
[1]
  inhibition: 88%
[2]
  IC50: 0.39 µM
  Ki: 0.11 µM

## Clc1ccc(CN2CCO[C@H](CCc3ccccc3)C2)cc1
[3]
  Kp at 0.25 h: 2
[1]
  inhibition: 96%
[4]
  Activity: 93%
[5]
  Activity: 77%
[6]
  INH: > 20 µM
[7]
  Activity: 99%
[8]
  INH: > 20 µM
[9]
  concentration at 0.25 h: 482 nM
[10]
  IC50: 18 µM
[11]
  fraction unbound: 0.061
[12]
  INH: > 20 µM
[13]
  INH: > 20 µM
[14]
  INH: > 20 µM
[15]
  IC50: > 30 µM
[16]
  IC50: > 30 µM
[17]
  Activity: Active
[18]
  IC50: > 30 µM
[19]
  Activity: 68%
[2]
  IC50: 0.13 µM
  Ki: 0.036 µM
[20]
  Activity: 72%
[21]
  concentration at 0.25 h: 987 nM
[22]
  fraction unbound: 0.039

## c1ccc(CCC2CN(Cc3ccncc3)CCO2)cc1 (racemic)
[1]
  inhibition: 13%

## c1ccc(CCC2CN(Cc3cccnc3)CCO2)cc1 (racemic)
[1]
  inhibition: 35%

## c1ccc(CCC2CN(Cc3ccccn3)CCO2)cc1 (racemic)
[1]
  inhibition: 23%

## Cc1ccc(C(=O)N2CCOC(CCc3ccccc3)C2)cc1 (racemic)
[1]
  inhibition: 17%

## Fc1cccc(F)c1CN1CCOC(CCc2ccccc2)C1 (racemic)
[1]
  inhibition: 51%
[2]
  IC50: 3.88 µM
  Ki: 1.07 µM

## c1ccc(CCC2CN(Cc3nc4ccccc4[nH]3)CCO2)cc1 (racemic)
[8]
  IC50: 31.8 µM
  Ki: 10.8 µM
[14]
  IC50: > 100 µM
  Ki: > 100 µM
[23]
  IC50: > 100 µM
  Ki: > 100 µM
[2]
  IC50: 0.36 µM
  Ki: 0.14 µM

## FC(F)(F)Oc1ccc(CN2CCO[C@H](CCc3ccccc3)C2)cc1
[1]
  inhibition: 96%
[6]
  INH: > 20 µM
[8]
  IC50: 8.17 µM
  Ki: 2.77 µM
[12]
  Ki: 5.5 µM
[13]
  INH: > 20 µM
[14]
  INH: > 20 µM
[2]
  IC50: 0.23 µM
  Ki: 0.065 µM

## c1ccc(CCC2CN(c3ccccc3)CCO2)cc1 (racemic)
[1]
  inhibition: 5%

## FC(F)(F)Oc1ccc(CN2CCOC(CCc3ccccc3)C2)cc1 (racemic)
[1]
  inhibition: 94%
[6]
  INH: > 20 µM
[8]
  IC50: 8.17 µM
  Ki: 2.77 µM
[12]
  Ki: 5.5 µM
[13]
  INH: > 20 µM
[14]
  INH: > 20 µM
[2]
  IC50: 0.16 µM
  Ki: 0.043 µM

## O=C(Nc1ccc(F)cc1)N1CCOC(CCc2ccccc2)C1 (racemic)
[1]
  inhibition: 5%

## Cc1ccccc1CN1CCOC(CCc2ccccc2)C1 (racemic)
[1]
  inhibition: 54%
[2]
  IC50: 3.68 µM
  Ki: 1.02 µM

## c1ccc(CC[C@H]2CN(Cc3nc4ccccc4[nH]3)CCO2)cc1
[8]
  IC50: 76.4 µM
  Ki: 25.9 µM
[14]
  IC50: > 100 µM
  Ki: > 100 µM
[23]
  IC50: > 100 µM
  Ki: > 100 µM
[2]
  IC50: > 100 µM
  Ki: > 100 µM

## Clc1ccc(CN2CCOC(CCc3ccccc3)C2)cc1 (racemic)
[1]
  inhibition: 97%
[6]
  INH: > 20 µM
[8]
  INH: > 20 µM
[12]
  INH: > 20 µM
[13]
  INH: > 20 µM
[14]
  INH: > 20 µM
[2]
  IC50: 0.29 µM
  Ki: 0.081 µM

## c1ccc(CC[C@@H]2CN(Cc3nc4ccccc4[nH]3)CCO2)cc1
[3]
  Kp at 0.25 h: 1.8
[24]
  Activity: inactive
[8]
  IC50: 46.2 µM
  Ki: 15.7 µM
[9]
  concentration at 0.25 h: 1940 nM
[10]
  IC50: 12 µM
[11]
  fraction unbound: 0.012
[14]
  IC50: > 100 µM
  Ki: > 100 µM
[15]
  IC50: 15.6 µM
[16]
  IC50: 4.8 µM
[23]
  IC50: > 100 µM
  Ki: > 100 µM
[17]
  Activity: inactive
[18]
  IC50: 13.1 µM
[2]
  IC50: 0.18 µM
  Ki: 0.07 µM
[21]
  concentration at 0.25 h: 3560 nM
[22]
  fraction unbound: 0.133

## COc1ccc(CN2CCOC(CCc3ccccc3)C2)cc1 (racemic)
[1]
  inhibition: 98%
[6]
  INH: > 20 µM
[8]
  IC50: 8.17 µM
  Ki: 2.77 µM
[12]
  IC50: 16.5 µM
[13]
  INH: > 20 µM
[14]
  INH: > 20 µM
[2]
  IC50: 0.17 µM
  Ki: 0.046 µM

## O=S(=O)(c1ccccc1)N1CCOC(CCc2ccccc2)C1 (racemic)
[1]
  inhibition: 2%
